Data taken from the supplement of paper PMC10920090.

Experiments:
[1] = test system: MDA-MB-231; assay: drug sensitivity score (DSS), cytotoxicity CellTox Green; higher = more cytotoxic; extreme values may be limits of the assay; conditions: 72 h
[2] = test system: MDA-MB-231; assay: drug sensitivity score (DSS), cell viability CellTiter-Glo; higher = more sensitive; extreme values may be limits of the assay; conditions: 72 h
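Wherever drug sensitivity score (DSS), cytotoxicity CellTox Green is given: DSS summarises each dose–response curve by combining IC50, EC50, maximal inhibition and efficacy across drug concentrations.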

| Compound | drug sensitivity score ([1]; shRNA: shPPFIA1_1) [DSS] | drug sensitivity score ([1]; shRNA: shScramble) [DSS] | drug sensitivity score ([2]; shRNA: shPPFIA1_1) [DSS] | drug sensitivity score ([2]; shRNA: shScramble) [DSS] |
| --- | --- | --- | --- | --- |
| Cn1cc(C2=C(c3cn(C4CCN(Cc5ccccn5)CC4)c4ccccc34)C(=O)NC2=O)c2ccccc21 [Enzastaurin] | 0 | 0 | 5.6 | 2.8 |
| CCc1c(C(=O)C(N)=O)c2c(OCC(=O)O)cccc2n1Cc1ccccc1 [Varespladib] | 0 | 0 | 0 | 0 |
| COc1cc(C(=O)O)ccc1NC(=O)[C@@H]1N[C@@H](CC(C)(C)C)[C@](C#N)(c2ccc(Cl)cc2F)[C@H]1c1cccc(Cl)c1F [Idasanutlin] | 2.6 | 0.6 | 0 | 0 |
| Nc1ccn([C@@H]2O[C@H](CO)[C@@H](O)[C@@H]2O)c(=O)n1 [Cytarabine] | 0 | 0 | 0 | 1.6 |
| COc1cc(OC)c(/C=C/S(=O)(=O)Cc2ccc(OC)c(NCC(=O)O)c2)c(OC)c1 [Rigosertib] | 2.4 | 2.4 | 0 | 5.3 |
| Nc1nc(Cl)nc2c1ncn2[C@@H]1O[C@H](CO)[C@@H](O)[C@@H]1F [Clofarabine] | 0 | 0 | 0 | 6.5 |
| CN(N=O)C(=O)N[C@@H](C=O)[C@@H](O)[C@H](O)[C@H](O)CO [Streptozocin] | 0 | 0 | 0.1 | 0.3 |
| COc1cc(F)c(F)c(Nc2ccc(I)cc2F)c1NS(=O)(=O)C1(C[C@H](O)CO)CC1 [Refametinib] | 10.5 | 18.6 | 6 | 10.6 |
| COc1ncc(-c2ccc3nccc(-c4ccnnc4)c3c2)cc1NS(=O)(=O)c1ccc(F)cc1F [Omipalisib] | 0 | 0 | 0 | 10.9 |
| COCC(=O)NC/C=C/c1ccc2ncnc(Nc3ccc(Oc4ccc(C)nc4)c(C)c3)c2c1 | 2.2 | 0 | 0 | 0.3 |
| O=C(NC1CCNCC1)c1n[nH]cc1NC(=O)c1c(Cl)cccc1Cl [AT7519] | 8.6 | 5.3 | 5.6 | 12.7 |
| Nc1nccc(-c2c(-c3ccc(F)cc3)ncn2C2CCCCC2)n1 | 0 | 0 | 0 | 0 |
| CC[C@H](CO)Nc1nc(NCc2ccccc2)c2ncn(C(C)C)c2n1 [Seliciclib] | 0 | 0 | 0 | 0 |
| CN(C)Cc1c(C(=O)NCCOc2ccc(C(=O)NO)cc2)oc2ccccc12 [Abexinostat] | 16.6 | 10.4 | 3.4 | 12.2 |
| CC(C)Oc1cc(Nc2nc(N[C@@H](C)c3ccc(F)cn3)ncc2Cl)n[nH]1 [AZ-23] | 0 | 1 | 0 | 0 |
| CCNC(=O)c1noc(-c2cc(C(C)C)c(O)cc2O)c1-c1ccc(CN2CCOCC2)cc1 [Luminespib] | 0 | 2 | 9.5 | 12.2 |
| COc1ccc(S(=O)(=O)Nc2cccnc2Nc2ccc(O)cc2)cc1 [ABT-751] | 2.1 | 0.1 | 0 | 4.5 |
| NC(=O)c1cccc2cn(-c3ccc([C@@H]4CCCNC4)cc3)nc12 [Niraparib] | 0 | 0 | 2.8 | 1.9 |
| FC(F)(F)c1ccc(/C=C/c2nc(COc3ccc(CCCCn4ccnn4)cc3)co2)cc1 [Mubritinib] | 0 | 0 | 2.1 | 2 |
| COC(=O)c1ccc2c(c1)NC(=O)/C2=C(\Nc1ccc(N(C)C(=O)CN2CCN(C)CC2)cc1)c1ccccc1 [Nintedanib] | 1.1 | 6.7 | 0 | 8.1 |
| COc1cc(Nc2ncc(F)c(Nc3ccc4c(n3)NC(=O)C(C)(C)O4)n2)cc(OC)c1OC [Tamatinib] | 0.2 | 0 | 0 | 1.8 |
| COc1cc(OC2CCN(C)CC2)ccc1Nc1ncc2c(n1)n(C1CCCC1)c(=O)n2C [AZ 3146] | 0.7 | 2.7 | 4.7 | 8.7 |

| Compound | drug sensitivity score ([1]; shRNA: shPPFIA1_1) [DSS] | drug sensitivity score ([1]; shRNA: shScramble) [DSS] | drug sensitivity score ([2]; shRNA: shPPFIA1_1) [DSS] | drug sensitivity score ([2]; shRNA: shScramble) [DSS] |
| --- | --- | --- | --- | --- |
| C[C@@H]1C[C@H]2O[C@@H]2/C=C\C=C\C(=O)Cc2c(Cl)c(O)cc(O)c2C(=O)O1 [Radicicol] | 0 | 1.9 | 2 | 6.4 |
| Cc1cc(Nc2ncc(Cl)c(Nc3ccccc3S(=O)(=O)C(C)C)n2)c(OC(C)C)cc1C1CCNCC1 [Ceritinib] | 0.9 | 0 | 0 | 1.2 |
| O[C@H]1CC[C@H](Nc2ncc3nc(Nc4c(F)cc(F)cc4F)n([C@H]4CCOC4)c3n2)CC1 [Tanzisertib] | 0 | 0 | 0 | 3.1 |
| C[C@@H]1CN(Cc2ccc(F)cc2)[C@@H](C)CN1C(=O)c1cc2c(C(=O)C(=O)N(C)C)cn(C)c2cc1Cl [Talmapimod] | 0 | 0 | 0 | 0 |
| CCC1(c2ccc(N)cc2)CCC(=O)NC1=O (stereo unspecified) [Aminoglutethimide] | 0 | 0 | 0 | 0 |
| C[C@]12C=CC(=O)C=C1CC[C@@H]1[C@@H]2C(=O)C[C@@]2(C)[C@H]1CC[C@]2(O)C(=O)CO [Prednisone] | 0 | 0 | 0 | 0 |
| CN(C)c1nc(N(C)C)nc(N(C)C)n1 [Altretamine] | 0 | 0 | 0 | 0 |
| O=C(c1ccc(C(=O)N2CCC(N3CCCC3)CC2)c(Nc2ccccc2)c1)N1CCC(N2CCCC2)CC1 [UNC1215] | 0 | 0 | 0.4 | 0.3 |
| CC1=C(/C=C/C(C)=C/C=C/C(C)=C/C(=O)O)C(C)(C)CCC1 [Tretinoin] | 0 | 0 | 0 | 0 |
| Cc1[nH]c2ccccc2c1CCNCc1ccc(/C=C/C(=O)NO)cc1 [Panobinostat] | 11.6 | 11.4 | 10.9 | 14 |
| CNCc1ccc(-c2[nH]c3cc(F)cc4c3c2CCNC4=O)cc1 [Rucaparib] | 0 | 0 | 0 | 0 |
| CNc1nc(Nc2cn(C(C)(C)C#N)nc2C)ncc1C(F)(F)F [GNE-0877] | 0 | 0 | 0 | 0 |
| N#Cc1ccc2[nH]c(O)c(-c3ccc(CN4CCOCC4)cn3)c2c1 [AZD-1080] | 0 | 0 | 0 | 0 |
| CC(=O)Nc1ccc(C(=O)Nc2ccccc2N)cc1 [Tacedinaline] | 0 | 0 | 0 | 0 |
| Cc1cn(-c2cc(NC(=O)c3ccc(C)c(Nc4nccc(-c5cccnc5)n4)c3)cc(C(F)(F)F)c2)cn1 [Nilotinib] | 4.5 | 0.2 | 0 | 3.8 |
| CCOc1cc2ncc(C#N)c(Nc3ccc(OCc4ccccn4)c(Cl)c3)c2cc1NC(=O)/C=C/CN(C)C [Neratinib] | 0.2 | 0 | 6.3 | 8.3 |
| O=C(/C=C/c1cccc(S(=O)(=O)Nc2ccccc2)c1)NO [Belinostat] | 14.9 | 8.1 | 8.7 | 10.2 |
| Cc1nc(=O)c2cc(CN(C)c3ccc(C(=O)N[C@@H](CCC(=O)O)C(=O)O)s3)ccc2[nH]1 [Raltitrexed] | 0 | 0 | 0 | 0 |
| O=C(NC[C@H](O)CN1CCc2ccccc2C1)c1cc(NC2COC2)ncn1 | 0 | 0 | 0.5 | 1.8 |
| C/C(=C\c1csc(C)n1)[C@@H]1C[C@@H]2O[C@]2(C)CCC[C@H](C)[C@H](O)[C@@H](C)C(=O)C(C)(C)[C@@H](O)CC(=O)N1 [Ixabepilone] | 3.8 | 3.1 | 0 | 5 |
| Nc1ccccc1NC(=O)c1ccc(CNC(=O)OCc2cccnc2)cc1 [Entinostat] | 3.9 | 0.2 | 0.3 | 4.5 |
| CC(=O)[C@]1(O)Cc2c(O)c3c(c(O)c2[C@@H](O[C@H]2C[C@H](N)[C@H](O)[C@H](C)O2)C1)C(=O)c1ccccc1C3=O [Idarubicin] | 6.6 | 7.5 | 6.4 | 10.7 |

| Compound | drug sensitivity score ([1]; shRNA: shPPFIA1_1) [DSS] | drug sensitivity score ([1]; shRNA: shScramble) [DSS] | drug sensitivity score ([2]; shRNA: shPPFIA1_1) [DSS] | drug sensitivity score ([2]; shRNA: shScramble) [DSS] |
| --- | --- | --- | --- | --- |
| CC(C)C[C@H](NC(=O)[C@H](CCc1ccccc1)NC(=O)CN1CCOCC1)C(=O)N[C@@H](Cc1ccccc1)C(=O)N[C@@H](CC(C)C)C(=O)[C@@]1(C)CO1 [Carfilzomib] | 21.9 | 22.1 | 16.5 | 21.4 |
| c1ccc2c(CCNc3ccc(Nc4ccncc4)cc3)c[nH]c2c1 [Serdemetan] | 0 | 0 | 3 | 0.7 |
| CC[C@@]1(O)C(=O)OCc2c1cc1n(c2=O)Cc2cc3c(CN(C)C)c(O)ccc3nc2-1 [Topotecan] | 0.8 | 1.5 | 0 | 5.8 |
| Nc1nc2[nH]cnc2c(=S)[nH]1 [Thioguanine] | 0 | 0 | 5.1 | 10.2 |
| CC(C)(C)Cn1c(N)nc2ccc(-c3[nH]c(C(C)(C)C)nc3-c3ccc(F)cc3)nc21 [Ralimetinib] | 0 | 0 | 0.2 | 0 |
| COc1ccc(C[C@H](NC(=O)[C@H](C)NC(=O)CN2CCOCC2)C(=O)N[C@@H](Cc2ccccc2)C(=O)C2(C)CO2)cc1 (stereo in doubt) [ONX-0914] | 19.1 | 18.6 | 17.1 | 18.1 |
| CS(=O)(=O)c1ccc(C2=C(c3ccccc3)C(=O)OC2)cc1 [Rofecoxib] | 0 | 0 | 0 | 0 |
| N#CCNC(=O)c1ccc(-c2ccnc(Nc3ccc(N4CCOCC4)cc3)n2)cc1 [Momelotinib] | 0 | 0 | 0 | 0 |
| OCCn1cc(-c2cnc3nnn(Cc4ccc5ncccc5c4)c3n2)cn1 | 0 | 0 | 0.9 | 0 |
| Cn1c(CCCC(=O)O)nc2cc(N(CCCl)CCCl)ccc21 [Bendamustine] | 0 | 0 | 0 | 0 |
| Cn1cc(C[C@@H](N)C(=O)O)c2ccccc21 [1-methyl-D-tryptophan] | 0 | 0 | 0 | 0.9 |
| C/C=C1\NC(=O)[C@H]2CSSCC/C=C/[C@H](CC(=O)N[C@H](C(C)C)C(=O)N2)OC(=O)[C@H](C(C)C)NC1=O [Romidepsin] | 33.6 | 26.9 | 20.5 | 29 |
| Nc1nc(NC2CC2)cc(-c2cccc(Cl)c2Cl)n1 [TH588] | 0.6 | 0.5 | 0.9 | 0.8 |
| C[C@H](Nc1ncnc2nc[nH]c12)c1cc2cccc(Cl)c2c(=O)n1-c1ccccc1 [Duvelisib] | 0 | 3.3 | 3 | 0 |
| CC(C)NC(=O)COc1cccc(-c2nc(Nc3ccc4[nH]ncc4c3)c3ccccc3n2)c1 [SLx-2119] | 0 | 0 | 0 | 0 |
| CO[C@H]1C[C@@H]2CC[C@@H](C)[C@@](O)(O2)C(=O)C(=O)N2CCCC[C@H]2C(=O)O[C@H]([C@H](C)C[C@@H]2CC[C@@H](O)[C@H](OC)C2)CC(=O)[C@H](C)/C=C(\C)[C@@H](O)[C@@H](OC)C(=O)[C@H](C)C[C@H](C)/C=C/C=C/C=C/1C [Sirolimus] | 0 | 0 | 0 | 6 |
| NC(=O)c1cccc(-c2cccc(OC(=O)NC3CCCCC3)c2)c1 [URB597] | 0 | 0 | 0.2 | 0 |
| CN(C)C(=O)c1ccc(S(=O)(=O)c2ccc(NC(=O)[C@@](C)(O)C(F)(F)F)c(Cl)c2)cc1 [AZD7545] | 0 | 0 | 3.6 | 0 |
| CCCCCCCCc1ccc(CCC(N)(CO)CO)cc1 [Fingolimod] | 6.7 | 6.8 | 7.5 | 8 |
| CC(C)[C@H](C(=O)Nc1ccc(C(=O)NO)cc1)c1ccccc1 [AR-42] | 12.6 | 7.5 | 9.3 | 9.5 |
